# Reference: US7008632B2, “Combination of biological and chemical agents to combat rodents” (priority 2000, dated 2006)
# Marks after values point to notes of the source that are not given here.
# Tests used:
# [1] = test system: feral adult brown rats (Rattus norvegicus); assay: Experiment using feral adult brown rats: mortality after gavage of sporocysts, coumatetralyl or the combination; format: in vivo; settings: single gavage; 10 000 sporocysts and/or 6 mg of coumatetralyl per kg of body weight
# Experimental: Experiment Using Feral Adult Brown Rats (Rattus norvegicus)
# The mortality was determined.
# The rats were raised under standard conditions in the laboratory. During the experiment and the 2-week preparation, they were kept individually in cages made of Makrolon. Sporocyst suspension and coumatetralyl were administered by gavage, and during the administration the animals were anesthetized lightly using diethyl ether.
# Rattus norvegicus = settings: non-resistant rats; cited from earlier work
Structure (SMILES),Mortality % [1],LD50 (acute oral) (Rattus norvegicus) [mg/kg]
"O=c1oc2ccccc2c(O)c1C1CCCc2ccccc21 (stereo not drawn) [coumatetralyl, 3-(1′,2′,3′,4′-tetrahydro-1′-naphthyl)-4-hydroxycoumarin]",17* %,–
O=c1oc2ccccc2c(O)c1C1CC(c2ccc(-c3ccc(Br)cc3)cc2)Cc2ccccc21 (stereo not drawn) [brodifacoum],–,0.2
"O=c1oc2ccccc2c(O)c1C(CC(O)c1ccc(-c2ccc(Br)cc2)cc1)c1ccccc1 (stereo not drawn) [bromadiolone, 3-(4′-hydroxy-3′-coumarinyl)-3-phenyl-1-(4′-bromo-4′-biphenyl)-propan-1-ol]",–,2.0
